These results are taken from patent US20230405003A1, “APPLICATION OF THYMIDINE DERIVATIVE IN PREPARATION OF DRUGS” (ONQUALITY PHARMACEUTICALS CHINA LTD., priority 2020, published 2023).

Read-outs that look alike come from different tables or passages of the source.

Assay [1] relates to pain in capecitabine hand-foot syndrome rats. Put plainly: Pain of hand-foot syndrome, mechanical sensitivity in rats (von Frey). The assay is classed as in vivo, rat. The following applies: capecitabine 4000 mg/kg hand-foot syndrome rats; thymidine derivative 3%. As to the method: According to the method of Examples 91-115, after administration of a thymidine derivative (at a concentration of 3%) and co-administration of a thymidine derivative (at a concentration of 1%) with a uridine derivative (at a concentration of 3%) to rat hand-foot syndrome models constructed from 4000 mg/kg of capecitabine for a period of time, pain analysis was performed on the rats, and the pain assessment model was mechanical sensitivity in rats (von Frey). The experimental steps were as follows: first, the rats were allowed to adapt in the room for 1 hour, then the rats were placed in an observation box with a metal mesh floor, and the mice were allowed to stay in the box for 20 minutes to adapt to the experimental platform. Next, a von Frey device was used to detect paw pain by stimulating the surface of the rat's palm with specially designed cilia to detect the mechanical sensitivity of the animal at strength of 0.4 g, 0.8 g, 1.5 g, 2.5 g, 4 g, 8 g, 10 g and 20 g (IITC Life Science, Woodland Hills, 2390 series). […] The rat movement response was considered to be a vague response, in which case the stimulation experiment was repeated.

Assay [2] relates to hand-foot syndrome caused by capecitabine in Balb/c mice. Put plainly: Mouse model of hand-foot syndrome caused by capecitabine, gel application or oral administration. The assay is classed as in vivo. As to conditions: Mus musculus, capecitabine 1000 mg/kg once daily; for inhibition in vivo at 300 mg/kg / inhibition in vivo at 200 mg/kg: 192 h, 8 days; for inhibition in vivo at 300 mg/kg: oral 300 mpk twice per day; for inhibition in vivo at 0.5 % / inhibition in vivo at 2 % / inhibition in vivo at 5 % / inhibition in vivo at 1 % / inhibition in vivo at 3 %: topical, 360 h, 15 days; for inhibition in vivo at 0.5 %: gel 0.5 wt%; for inhibition in vivo at 2 %: gel 2 wt%; for inhibition in vivo at 5 %: gel 5 wt%; for inhibition in vivo at 1 %: transdermal 1% (wt %); for inhibition in vivo at 3 %: transdermal 3% (wt %); for inhibition in vivo at 200 mg/kg: oral 200 mpk twice per day. As to the method: A mouse animal model was established. 6-week aged male Balb/c mice were administered with capecitabine by daily gavage. After a few days, mice's paws developed hand-foot syndrome symptoms (similar to the results of the rat model, such as, in FIG. 13). Similar to the human body, mice developed hand-foot syndrome in the forepaws and hind paws after oral administration of capecitabine. The causes of the two are the same, and the disorder is also very similar. Therefore, mice are very good animal models for simulating the hand-foot syndrome caused by capecitabine.
After Balb/c mice were fed and adapted for one week (about 20 g), the mice were divided into groups, with 10 mice in each group. Then, the mice were subject to gavage administration. Capecitabine was dissolved in normal saline with pH=8, and the gavage dose was not greater than 0.3 mL at each time. After gavage, the blank gel was applied to the forepaws and the hind paws (about 4*0.5 cm*0.5 cm) in group of blank gel, and gels containing different drugs were applied to the forepaws and the hind paws (about 4*0.5 cm*0.5 cm) in group of administration. After application, the mice were fixed in Elizabethan collar for 4 hours. After 4 hours, the mice were released, wiped with clean water to remove any residual drug at the application site, and allowed back to the cage. The gavage and application tests are repeated daily until the group of blank has developed obvious hand-foot syndrome. […] Additionally, the thymidine derivative and the combination of thymidine derivative and uridine derivative were orally administered for observing the relief of the hand-foot syndrome. In examples 41-48, thymidine derivative and/or uridine derivative were/was applied, and in examples 49-52, thymidine derivative and/or uridine derivative were/was administered orally.
Table 5 lists the combinations of animal experiments of capecitabine and thymidine derivative (or a combination of thymidine derivative and uridine derivative) and the corresponding experimental results (wherein the data in the column of control rate=the occurrence rate of hand-foot syndrome in group of blank—the occurrence rate of hand-foot syndrome in group of administration).
The effect of thymidine derivative or a combination of thymidine derivative and uridine derivative on a mouse model with chemotherapeutic drug (capecitabine)-induced hand-foot syndrome was tested according to the method in Examples 41-52. Wherein, the drugs were administered transdermally for Examples 119-120 and orally for Examples 121-123.
The test thymidine derivative or the combination of thymidine derivative and uridine derivative, as well as the final concentration of the test compounds were shown in Table 9. Table 9 lists the combinations of animal experiments of capecitabine and the thymidine derivative gel (or a compounded gel of thymidine derivative and uridine derivative) and the corresponding experimental results (wherein the data in the column of control rate=the occurrence rate of hand-foot syndrome in Group of blank—the occurrence rate of hand-foot syndrome in Group of administration).

For assay [3], the system named is hand-foot syndrome caused by capecitabine in SD rats. Nature of the assay: Rat model of hand-foot syndrome caused by capecitabine, gel application. The assay is classed as in vivo. As to conditions: capecitabine 4000 mg/kg once daily, 40 days; for inhibition in vivo at 3 % / inhibition in vivo at 0.1 % / inhibition in vivo at 0.5 % / inhibition in vivo at 1 % / inhibition in vivo at 5 %: Rattus norvegicus, topical, 960 h; for inhibition in vivo at 3 % / inhibition in vivo at 0.1 % / inhibition in vivo at 0.5 % / inhibition in vivo at 1 % / inhibition in vivo at 5 % / Control Rate Forepaws / Control Rate Hindpaws: rats; for Control Rate: SD rats; for inhibition in vivo at 0.1 %: gel 0.10 wt%; for inhibition in vivo at 0.5 %: gel 0.50 wt%; for inhibition in vivo at 5 %: gel 5 wt%. As to the method: A rat animal model was established. 6-week aged female SD rats were administered with capecitabine by daily gavage. The degree of hand-foot syndrome in paws is similar, and there was no difference between the left and right paws. Similar to the human body, rats developed hand-foot syndrome after oral administration of capecitabine. The causes of the two are the same, and the disorder is also very similar. Therefore, rats are very good animal models for simulating the hand-foot syndrome caused by capecitabine.
After SD rats were fed and adapted for one week (about 200 g), the rats were divided into groups, with 10 rats in each group. Then, the rats were subject to gavage administration. Capecitabine was dissolved in a 1:1 mixed solution of castor oil and ethanol and diluted for three times with PBS buffer. After gavage, the rats were fixed with a fixed cylinder, and a gel of thymidine derivative (or a compounded gel of thymidine derivative and uridine derivative) was applied to double hind paws (about 1 cm*3 cm) of the rats in group of administration (the types and concentrations are shown in Table 4), and a blank gel was applied to the group of blank (as a blank control). After approximately 4 hours of application, the rats were released after 4 hours, wiped with clean water to remove any residual drug at the application site, and allowed back to the cage. The thymidine derivative gel (or the compounded gel of thymidine derivative and uridine derivative) was administered with gavage every day. The gavage and application tests are repeated daily until the group of blank has developed obvious hand-foot syndrome.
Table 4 lists the combinations of animal experiments of capecitabine and the thymidine derivative gel (or the compounded gel of thymidine derivative and uridine derivative) and the corresponding experimental results (wherein, the data in the column of control rate=the occurrence rate of hand-foot syndrome in group of blank—the occurrence rate of hand-foot syndrome in group of administration). […]

Where [4] appears, read: read-out: Control Rate Forepaws.
Setting [5] is: read-out: Control Rate Hindpaws.
Where [6] appears, read: gel 3 wt%, read-out: Control Rate Forepaws.
The mark [7] stands for this setting: gel 3 wt%, read-out: Control Rate Hindpaws.

Take `CC(=O)OCC1OC(n2cc(C)c(=O)[nH]c2=O)CC1OC(C)=O` (stereo not shown) [T1]: the “pain in rats (von Frey mechanical sensitivity)” value (from here on “pain in rats”) in assay [1] is “did not significantly improve pain in rats”. Moreover, the inhibition in vivo at 300 mg/kg in assay [2] (setting [4]) amounted to 80%; in assay [2] (setting [5]), 90%. The inhibition in vivo at 0.5 % in assay [2] (setting [4]) is 30%; in assay [2] (setting [5]), 20%. In addition, the values for the inhibition in vivo at 2 % in assay [2] (setting [4]) and in assay [2] (setting [5]) were 45.6% and 34.4%, respectively. The results for the inhibition in vivo at 5 % in assay [2] (setting [4]) and in assay [2] (setting [5]) were 67.8% and 78.9%, respectively. The inhibition in vivo at 3 % was 57.1% in assay [3] (setting [6]) and 71.4% in assay [3] (setting [7]). For the same compound, the “Control Rate” value amounted to 20.00% in assay [3] (gel 0.5 wt% on hind paws), 27.50% in assay [3] (gel 2 wt% on hind paws) and 56.67% in assay [3] (gel 5 wt% on hind paws).
In the case of `CC(=O)O[C@H]1C[C@H](n2cc(C)c(=O)[nH]c2=O)O[C@@H]1CO` [T2], the inhibition in vivo at 2 % in assay [2] (setting [4]) came to 40%; in assay [2] (setting [5]), 27.5%. Also, the “Control Rate” value in assay [3] (gel 1 wt% on hind paws) worked out at 23.33%.
Consider `CC(=O)OC[C@H]1O[C@@H](n2cc(C)c(=O)[nH]c2=O)C[C@@H]1O` [T3], for which the results for the inhibition in vivo at 2 % in assay [2] (setting [4]) and in assay [2] (setting [5]) were 20% and 30%, respectively. Also, the “Control Rate” value in assay [3] (gel 1 wt% on hind paws) is 27.50%.
For the compound `COc1ccc2cc([C@H](C)C(=O)OC[C@H]3O[C@@H](n4cc(C)c(=O)[nH]c4=O)C[C@@H]3O)ccc2c1` [T25], the “pain in rats” value in assay [1] is “could significantly improve pain in rats”. Also, the inhibition in vivo at 5 % in assay [2] (setting [4]) stood at 44.4%; in assay [2] (setting [5]), 66.7%; in assay [3] (setting [4]) it was 57.1%; in assay [3] (setting [5]), 71.4%. The inhibition in vivo at 1 % in assay [2] (setting [4]) was found to be 22.2%; in assay [2] (setting [5]) it was 44.4%; in assay [3] (gel 1 wt%, read-out: Control Rate Forepaws) it was 37.5%; in assay [3] (gel 1 wt%, read-out: Control Rate Hindpaws), 50%. Further, the inhibition in vivo at 3 % in assay [2] (setting [4]) worked out at 25%; in assay [2] (setting [5]) it was 37.5%; in assay [3] (setting [6]), 62.5%; in assay [3] (setting [7]), 75%. The inhibition in vivo at 0.1 % in assay [3] (setting [4]) is 22.2%; in assay [3] (setting [5]), 33.3%. For the same compound, the inhibition in vivo at 0.5 % in assay [3] (setting [4]) worked out at 22.2%; in assay [3] (setting [5]), 44.4%.
As for `Cc1ccc(C(=O)c2ccc(CC(=O)OC[C@H]3O[C@@H](n4cc(C)c(=O)[nH]c4=O)C[C@@H]3O)n2C)cc1` [T36], the “pain in rats” value in assay [1] is listed as “could significantly improve pain in rats”. For the same compound, in assay [3] (gel 1 wt%), the “Control Rate Forepaws” value is 28.57% and the “Control Rate Hindpaws” value was found to be 42.86%. Besides, in assay [3] (gel 3 wt%), the “Control Rate Forepaws” value amounted to 44.44% and the “Control Rate Hindpaws” value turned out to be 44.44%.
In the case of `CC1=C(CC(=O)OC[C@H]2O[C@@H](n3cc(C)c(=O)[nH]c3=O)C[C@@H]2O)c2cc(F)ccc2/C1=C\c1ccc([S+](C)[O-])cc1` (stereo partly shown) [T40], the inhibition in vivo at 200 mg/kg in assay [2] (setting [4]) stood at 75%; in assay [2] (setting [5]), 88%. Moreover, the inhibition in vivo at 3 % was 44.4% in assay [3] (setting [6]) and 66.7% in assay [3] (setting [7]).
Turning to `Cc1cn([C@H]2C[C@H](OC(=O)C(C)c3cccc(C(=O)c4ccccc4)c3)[C@@H](CO)O2)c(=O)[nH]c1=O` (stereo partly shown) [T50], the “pain in rats” value in assay [1] was “could significantly improve pain in rats”. Further, the inhibition in vivo at 3 % in assay [3] (setting [6]) was 71.4%; in assay [3] (setting [7]), 57.1%.
